The values that follow come from paper PMC10305039, “Triphenylphosphonium (TPP)-Conjugated Quinolone Analogs Displayed Significantly Enhanced Fungicidal Activity Superior to Its Parent Molecule” (Journal of Fungi, 2023).

The structures appear in SMILES notation.

For the experiment, the system named is T1, cytochrome bc1 complex (complex III) of P. capsici.
T1 construct: gene cob; native complex III in freeze-thawed hyphal mitochondria isolated by differential centrifugation; not purified; with Cytochrome c1, heme protein, mitochondrial; Cytochrome b-c1 complex subunit Rieske, mitochondrial
As to the kind of experiment: complex III activity assay kit (Genmed GMS50009), hyphal mitochondria. The class given is biochemical, Phytophthora capsici. The conditions noted are these: freeze-thawed mitochondria; Qi site proposed, not shown.

Compound `Cc1cc(=O)c2ccccc2n1OC(=O)CCCCCCCCCC[P+](c1ccccc1)(c1ccccc1)c1ccccc1` [mitoQNO11] displayed an IC50 of 3.33 µM.

The IC50 is the midpoint of a concentration-inhibition curve. A high value points to a need for much substance.
